In ChEMBL document CHEMBL1145498, “A systematic interaction map of validated kinase inhibitors with Ser/Thr kinases” (Proc Natl Acad Sci U S A, 2007):

molecular target: Calcium/calmodulin-dependent protein kinase type 1G (Homo sapiens) (UniProt Q96NX5)
Sequence (Q96NX5 whole entry): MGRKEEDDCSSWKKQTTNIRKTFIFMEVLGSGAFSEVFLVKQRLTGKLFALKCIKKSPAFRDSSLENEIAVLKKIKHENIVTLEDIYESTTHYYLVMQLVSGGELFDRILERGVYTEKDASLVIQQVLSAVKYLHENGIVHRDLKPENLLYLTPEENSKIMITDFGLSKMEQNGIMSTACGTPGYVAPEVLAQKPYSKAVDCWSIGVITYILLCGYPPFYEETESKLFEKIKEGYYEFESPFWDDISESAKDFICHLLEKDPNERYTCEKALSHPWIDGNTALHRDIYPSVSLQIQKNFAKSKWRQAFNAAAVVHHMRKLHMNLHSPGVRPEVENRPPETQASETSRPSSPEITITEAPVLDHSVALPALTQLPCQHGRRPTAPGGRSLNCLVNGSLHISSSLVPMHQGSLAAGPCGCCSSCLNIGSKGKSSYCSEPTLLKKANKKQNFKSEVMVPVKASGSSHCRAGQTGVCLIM

Compound	ΔTm [°C]
COc1ccc2c(c[n+](C)c3c4cc5c(cc4ccc23)OCO5)c1OC [CHELERYTHRINE CHLORIDE]	-1.1
N#CC(C#N)=Cc1ccc(O)c(O)c1 [TYRPHOSTIN 23]	0
CC(C)(C)n1nc(-c2cccc3ccccc23)c2c(N)ncnc21	-0.3

molecular target: Calcium/calmodulin-dependent protein kinase type II subunit alpha (Homo sapiens) (UniProt Q9UQM7)
Sequence (Q9UQM7 whole entry): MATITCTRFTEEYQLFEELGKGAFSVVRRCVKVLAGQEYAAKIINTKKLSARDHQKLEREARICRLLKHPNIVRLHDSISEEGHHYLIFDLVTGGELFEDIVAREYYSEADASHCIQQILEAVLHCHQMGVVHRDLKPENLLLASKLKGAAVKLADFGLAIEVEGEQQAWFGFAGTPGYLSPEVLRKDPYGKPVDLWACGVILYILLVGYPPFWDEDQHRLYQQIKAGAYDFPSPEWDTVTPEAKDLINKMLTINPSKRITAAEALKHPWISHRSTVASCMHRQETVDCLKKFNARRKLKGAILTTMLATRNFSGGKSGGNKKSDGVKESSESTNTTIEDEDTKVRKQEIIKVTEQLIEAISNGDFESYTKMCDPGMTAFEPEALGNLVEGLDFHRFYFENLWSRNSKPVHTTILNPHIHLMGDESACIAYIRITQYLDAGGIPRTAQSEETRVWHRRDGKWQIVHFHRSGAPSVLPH

Compound	ΔTm [°C]
COc1ccc2c(c[n+](C)c3c4cc5c(cc4ccc23)OCO5)c1OC [CHELERYTHRINE CHLORIDE]	0.6
N#CC(C#N)=Cc1ccc(O)c(O)c1 [TYRPHOSTIN 23]	0.2
CC(C)(C)n1nc(-c2cccc3ccccc23)c2c(N)ncnc21	0.3

molecular target: Calcium/calmodulin-dependent protein kinase type II subunit beta (Homo sapiens) (UniProt Q13554)
Sequence (Q13554 whole entry): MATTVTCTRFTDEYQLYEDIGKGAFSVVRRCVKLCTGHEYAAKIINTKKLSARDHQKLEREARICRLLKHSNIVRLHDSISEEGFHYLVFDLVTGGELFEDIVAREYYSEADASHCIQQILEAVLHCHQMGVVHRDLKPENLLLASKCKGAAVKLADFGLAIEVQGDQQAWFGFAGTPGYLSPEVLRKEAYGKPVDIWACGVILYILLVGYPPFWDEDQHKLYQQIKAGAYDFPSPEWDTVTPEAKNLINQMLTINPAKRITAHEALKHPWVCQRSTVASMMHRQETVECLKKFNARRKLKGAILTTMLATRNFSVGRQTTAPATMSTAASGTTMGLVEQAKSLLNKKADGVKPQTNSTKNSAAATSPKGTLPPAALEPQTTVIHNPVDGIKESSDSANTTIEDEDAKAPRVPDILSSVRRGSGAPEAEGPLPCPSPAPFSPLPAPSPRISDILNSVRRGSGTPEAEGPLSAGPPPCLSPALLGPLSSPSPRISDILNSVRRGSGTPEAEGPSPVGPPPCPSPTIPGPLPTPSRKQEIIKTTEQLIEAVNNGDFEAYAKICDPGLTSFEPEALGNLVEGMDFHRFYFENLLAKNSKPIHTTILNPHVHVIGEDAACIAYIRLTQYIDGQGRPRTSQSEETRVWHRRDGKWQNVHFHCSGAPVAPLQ

Compound	ΔTm [°C]
COc1ccc2c(c[n+](C)c3c4cc5c(cc4ccc23)OCO5)c1OC [CHELERYTHRINE CHLORIDE]	0.1
N#CC(C#N)=Cc1ccc(O)c(O)c1 [TYRPHOSTIN 23]	0.1
CC(C)(C)n1nc(-c2cccc3ccccc23)c2c(N)ncnc21	0.2

molecular target: Calcium/calmodulin-dependent protein kinase type II subunit delta (Homo sapiens) (UniProt Q13557)

Compound	ΔTm [°C]
COc1ccc2c(c[n+](C)c3c4cc5c(cc4ccc23)OCO5)c1OC [CHELERYTHRINE CHLORIDE]	-0.8
N#CC(C#N)=Cc1ccc(O)c(O)c1 [TYRPHOSTIN 23]	0.4
CC(C)(C)n1nc(-c2cccc3ccccc23)c2c(N)ncnc21	-0.1

molecular target: Calcium/calmodulin-dependent protein kinase type II subunit gamma (Homo sapiens) (UniProt Q13555)
Sequence (Q13555 whole entry): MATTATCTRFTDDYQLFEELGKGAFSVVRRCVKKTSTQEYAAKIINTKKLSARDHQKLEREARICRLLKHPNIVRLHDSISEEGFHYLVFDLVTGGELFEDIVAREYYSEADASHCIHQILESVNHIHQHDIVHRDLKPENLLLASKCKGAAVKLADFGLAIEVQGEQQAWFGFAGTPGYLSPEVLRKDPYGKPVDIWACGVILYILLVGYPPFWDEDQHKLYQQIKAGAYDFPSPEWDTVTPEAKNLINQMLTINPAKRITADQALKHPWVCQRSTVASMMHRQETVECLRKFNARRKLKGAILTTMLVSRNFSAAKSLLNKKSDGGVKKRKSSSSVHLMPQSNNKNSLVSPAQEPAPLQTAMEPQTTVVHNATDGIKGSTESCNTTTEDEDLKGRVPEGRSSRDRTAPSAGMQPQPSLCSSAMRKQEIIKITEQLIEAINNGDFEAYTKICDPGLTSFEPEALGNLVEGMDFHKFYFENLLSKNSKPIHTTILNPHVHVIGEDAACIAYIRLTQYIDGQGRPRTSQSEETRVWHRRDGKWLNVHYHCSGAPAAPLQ

Compound	ΔTm [°C]
COc1ccc2c(c[n+](C)c3c4cc5c(cc4ccc23)OCO5)c1OC [CHELERYTHRINE CHLORIDE]	-0.2
N#CC(C#N)=Cc1ccc(O)c(O)c1 [TYRPHOSTIN 23]	-0.1
CC(C)(C)n1nc(-c2cccc3ccccc23)c2c(N)ncnc21	0.2

molecular target: Dual specificity protein kinase CLK2 (Homo sapiens) (UniProt P49760)
Sequence (P49760 whole entry, looked up): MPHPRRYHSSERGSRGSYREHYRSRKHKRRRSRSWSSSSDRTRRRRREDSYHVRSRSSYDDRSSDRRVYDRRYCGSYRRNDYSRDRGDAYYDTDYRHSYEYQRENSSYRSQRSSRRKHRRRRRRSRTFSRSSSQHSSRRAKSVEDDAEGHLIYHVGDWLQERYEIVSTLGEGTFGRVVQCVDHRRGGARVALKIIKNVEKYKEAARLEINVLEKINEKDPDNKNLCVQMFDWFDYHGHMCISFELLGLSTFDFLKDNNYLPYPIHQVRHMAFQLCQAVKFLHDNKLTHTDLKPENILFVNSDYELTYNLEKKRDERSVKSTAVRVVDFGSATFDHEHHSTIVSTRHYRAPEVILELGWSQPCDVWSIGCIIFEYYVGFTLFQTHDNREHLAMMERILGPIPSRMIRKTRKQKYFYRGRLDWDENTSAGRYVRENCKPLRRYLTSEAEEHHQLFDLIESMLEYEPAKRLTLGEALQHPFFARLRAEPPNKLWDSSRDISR

Compound	ΔTm [°C]
COc1ccc2c(c[n+](C)c3c4cc5c(cc4ccc23)OCO5)c1OC [CHELERYTHRINE CHLORIDE]	-0.2
N#CC(C#N)=Cc1ccc(O)c(O)c1 [TYRPHOSTIN 23]	0.1
CC(C)(C)n1nc(-c2cccc3ccccc23)c2c(N)ncnc21	0.8

molecular target: Dual specificity protein kinase CLK3 (Homo sapiens) (UniProt P49761)
Sequence (P49761 whole entry, looked up): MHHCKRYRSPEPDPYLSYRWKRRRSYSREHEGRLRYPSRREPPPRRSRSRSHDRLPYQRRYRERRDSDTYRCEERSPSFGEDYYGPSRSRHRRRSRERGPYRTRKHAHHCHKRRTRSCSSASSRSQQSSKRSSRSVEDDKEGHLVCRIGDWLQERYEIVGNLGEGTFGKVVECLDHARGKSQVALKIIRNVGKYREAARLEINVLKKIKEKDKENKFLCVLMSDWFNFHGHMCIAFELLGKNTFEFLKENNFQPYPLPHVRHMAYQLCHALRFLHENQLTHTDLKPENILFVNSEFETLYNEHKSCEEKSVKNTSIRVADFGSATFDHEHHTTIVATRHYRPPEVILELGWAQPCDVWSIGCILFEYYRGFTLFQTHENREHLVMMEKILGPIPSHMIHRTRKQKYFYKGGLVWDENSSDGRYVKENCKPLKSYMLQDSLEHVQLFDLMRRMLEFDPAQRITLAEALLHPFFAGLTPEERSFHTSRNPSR

Compound	ΔTm [°C]
COc1ccc2c(c[n+](C)c3c4cc5c(cc4ccc23)OCO5)c1OC [CHELERYTHRINE CHLORIDE]	-1
N#CC(C#N)=Cc1ccc(O)c(O)c1 [TYRPHOSTIN 23]	0.4
CC(C)(C)n1nc(-c2cccc3ccccc23)c2c(N)ncnc21	0.2

molecular target: Casein kinase I isoform gamma-1 (Homo sapiens) (UniProt Q9HCP0)

Compound	ΔTm [°C]
COc1ccc2c(c[n+](C)c3c4cc5c(cc4ccc23)OCO5)c1OC [CHELERYTHRINE CHLORIDE]	0
N#CC(C#N)=Cc1ccc(O)c(O)c1 [TYRPHOSTIN 23]	0.4
CC(C)(C)n1nc(-c2cccc3ccccc23)c2c(N)ncnc21	0.1

molecular target: Death-associated protein kinase 3 (Homo sapiens) (UniProt O43293)
Sequence (O43293 whole entry, looked up): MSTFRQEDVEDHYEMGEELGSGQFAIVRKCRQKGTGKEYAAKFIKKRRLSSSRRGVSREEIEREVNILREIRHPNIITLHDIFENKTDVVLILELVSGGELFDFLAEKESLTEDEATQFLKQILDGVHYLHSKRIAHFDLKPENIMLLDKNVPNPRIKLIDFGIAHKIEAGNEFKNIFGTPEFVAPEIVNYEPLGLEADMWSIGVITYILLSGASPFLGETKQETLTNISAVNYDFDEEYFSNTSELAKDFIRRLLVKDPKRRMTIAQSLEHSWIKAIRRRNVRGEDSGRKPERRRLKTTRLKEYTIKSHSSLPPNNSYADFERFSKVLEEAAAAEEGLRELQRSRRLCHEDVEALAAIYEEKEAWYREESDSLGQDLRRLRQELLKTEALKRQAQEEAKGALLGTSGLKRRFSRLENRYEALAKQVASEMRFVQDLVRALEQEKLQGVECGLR

Compound	ΔTm [°C]
COc1ccc2c(c[n+](C)c3c4cc5c(cc4ccc23)OCO5)c1OC [CHELERYTHRINE CHLORIDE]	0.1
N#CC(C#N)=Cc1ccc(O)c(O)c1 [TYRPHOSTIN 23]	0.7
CC(C)(C)n1nc(-c2cccc3ccccc23)c2c(N)ncnc21	-0.8

molecular target: T1, Myotonin-protein kinase (Homo sapiens) (UniProt Q09013)
T1 sequence (whole entry): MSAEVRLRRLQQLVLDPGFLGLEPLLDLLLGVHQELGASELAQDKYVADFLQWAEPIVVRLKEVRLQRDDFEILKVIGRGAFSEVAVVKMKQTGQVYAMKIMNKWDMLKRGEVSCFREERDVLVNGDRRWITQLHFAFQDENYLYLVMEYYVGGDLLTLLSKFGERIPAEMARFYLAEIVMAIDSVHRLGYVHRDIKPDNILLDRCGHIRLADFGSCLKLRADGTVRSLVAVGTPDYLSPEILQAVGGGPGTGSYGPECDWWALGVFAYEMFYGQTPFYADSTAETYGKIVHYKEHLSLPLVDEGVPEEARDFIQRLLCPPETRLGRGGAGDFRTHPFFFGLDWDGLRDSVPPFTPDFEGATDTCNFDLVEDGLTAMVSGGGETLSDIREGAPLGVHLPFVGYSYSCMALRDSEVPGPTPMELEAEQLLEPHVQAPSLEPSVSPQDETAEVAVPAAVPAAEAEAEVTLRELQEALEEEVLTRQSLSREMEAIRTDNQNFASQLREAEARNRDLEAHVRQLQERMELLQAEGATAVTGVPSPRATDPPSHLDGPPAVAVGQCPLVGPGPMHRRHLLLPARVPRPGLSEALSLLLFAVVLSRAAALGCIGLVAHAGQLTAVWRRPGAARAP

Compound	ΔTm [°C]
COc1ccc2c(c[n+](C)c3c4cc5c(cc4ccc23)OCO5)c1OC [CHELERYTHRINE CHLORIDE]	1.7
N#CC(C#N)=Cc1ccc(O)c(O)c1 [TYRPHOSTIN 23]	0
CC(C)(C)n1nc(-c2cccc3ccccc23)c2c(N)ncnc21	2.5

molecular target: Dual specificity mitogen-activated protein kinase kinase 2 (Homo sapiens, UniProt P36507)
Sequence (P36507 whole entry): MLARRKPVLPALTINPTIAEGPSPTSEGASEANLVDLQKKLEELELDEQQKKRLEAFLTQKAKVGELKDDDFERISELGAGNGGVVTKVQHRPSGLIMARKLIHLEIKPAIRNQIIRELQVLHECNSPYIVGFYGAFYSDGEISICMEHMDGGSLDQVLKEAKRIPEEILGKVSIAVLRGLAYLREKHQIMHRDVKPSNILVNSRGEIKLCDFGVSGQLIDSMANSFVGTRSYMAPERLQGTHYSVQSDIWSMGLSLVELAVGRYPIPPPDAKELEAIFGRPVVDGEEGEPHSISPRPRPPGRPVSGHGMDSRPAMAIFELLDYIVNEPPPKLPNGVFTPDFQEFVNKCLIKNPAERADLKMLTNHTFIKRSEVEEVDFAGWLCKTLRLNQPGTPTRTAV

Compound	ΔTm [°C]
COc1ccc2c(c[n+](C)c3c4cc5c(cc4ccc23)OCO5)c1OC [CHELERYTHRINE CHLORIDE]	-0.9
N#CC(C#N)=Cc1ccc(O)c(O)c1 [TYRPHOSTIN 23]	0.1
CC(C)(C)n1nc(-c2cccc3ccccc23)c2c(N)ncnc21	3.2

molecular target: T2, Dual specificity mitogen-activated protein kinase kinase 6 (Homo sapiens) (UniProt P52564)
T2 sequence (whole entry): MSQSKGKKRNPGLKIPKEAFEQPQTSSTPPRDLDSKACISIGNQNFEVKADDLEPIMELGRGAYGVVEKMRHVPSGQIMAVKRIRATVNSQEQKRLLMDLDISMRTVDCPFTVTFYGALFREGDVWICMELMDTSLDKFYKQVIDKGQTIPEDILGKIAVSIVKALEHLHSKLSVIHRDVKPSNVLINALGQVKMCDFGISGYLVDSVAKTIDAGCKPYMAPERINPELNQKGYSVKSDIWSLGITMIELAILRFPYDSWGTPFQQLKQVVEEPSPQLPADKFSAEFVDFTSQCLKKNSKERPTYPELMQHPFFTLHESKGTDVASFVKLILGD

Compound	ΔTm [°C]
COc1ccc2c(c[n+](C)c3c4cc5c(cc4ccc23)OCO5)c1OC [CHELERYTHRINE CHLORIDE]	-6.6
N#CC(C#N)=Cc1ccc(O)c(O)c1 [TYRPHOSTIN 23]	0.2
CC(C)(C)n1nc(-c2cccc3ccccc23)c2c(N)ncnc21	3.5

molecular target: Mitogen-activated protein kinase 3 (Homo sapiens, UniProt P27361)
Sequence (P27361 whole entry): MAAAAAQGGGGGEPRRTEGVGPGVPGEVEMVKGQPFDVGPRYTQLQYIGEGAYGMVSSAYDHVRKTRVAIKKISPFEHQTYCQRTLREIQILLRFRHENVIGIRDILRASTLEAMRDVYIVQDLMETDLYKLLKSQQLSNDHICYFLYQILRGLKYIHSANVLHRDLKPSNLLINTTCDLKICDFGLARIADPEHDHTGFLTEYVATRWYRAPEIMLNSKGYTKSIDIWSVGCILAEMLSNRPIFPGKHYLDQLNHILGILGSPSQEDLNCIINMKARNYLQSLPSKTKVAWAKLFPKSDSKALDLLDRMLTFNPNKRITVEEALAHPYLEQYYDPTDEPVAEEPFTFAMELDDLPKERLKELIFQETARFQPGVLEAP

Compound	ΔTm [°C]
COc1ccc2c(c[n+](C)c3c4cc5c(cc4ccc23)OCO5)c1OC [CHELERYTHRINE CHLORIDE]	-0.5
N#CC(C#N)=Cc1ccc(O)c(O)c1 [TYRPHOSTIN 23]	0.3
CC(C)(C)n1nc(-c2cccc3ccccc23)c2c(N)ncnc21	0.8

molecular target: Mitogen-activated protein kinase 6 (Homo sapiens) (UniProt Q16659)

Compound	ΔTm [°C]
COc1ccc2c(c[n+](C)c3c4cc5c(cc4ccc23)OCO5)c1OC [CHELERYTHRINE CHLORIDE]	-0.3
N#CC(C#N)=Cc1ccc(O)c(O)c1 [TYRPHOSTIN 23]	0.1
CC(C)(C)n1nc(-c2cccc3ccccc23)c2c(N)ncnc21	0

molecular target: Serine/threonine-protein kinase OSR1 (Homo sapiens) (UniProt O95747)
Sequence (O95747 2-527 limits assumed): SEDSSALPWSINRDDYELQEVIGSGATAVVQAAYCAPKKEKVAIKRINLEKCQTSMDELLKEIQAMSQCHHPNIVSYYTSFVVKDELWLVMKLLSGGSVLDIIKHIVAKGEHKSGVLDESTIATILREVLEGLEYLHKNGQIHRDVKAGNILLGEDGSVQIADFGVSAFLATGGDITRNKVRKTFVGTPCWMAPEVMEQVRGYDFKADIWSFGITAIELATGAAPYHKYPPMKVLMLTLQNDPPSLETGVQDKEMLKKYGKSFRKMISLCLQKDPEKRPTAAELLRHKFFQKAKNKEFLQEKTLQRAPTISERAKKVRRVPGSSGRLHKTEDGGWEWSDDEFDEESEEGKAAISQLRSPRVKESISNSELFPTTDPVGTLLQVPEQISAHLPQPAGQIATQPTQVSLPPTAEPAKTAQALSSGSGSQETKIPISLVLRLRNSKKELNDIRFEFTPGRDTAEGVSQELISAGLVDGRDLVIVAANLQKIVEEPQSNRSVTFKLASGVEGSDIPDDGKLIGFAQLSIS

Compound	ΔTm [°C]
COc1ccc2c(c[n+](C)c3c4cc5c(cc4ccc23)OCO5)c1OC [CHELERYTHRINE CHLORIDE]	-2.6
N#CC(C#N)=Cc1ccc(O)c(O)c1 [TYRPHOSTIN 23]	0.8
CC(C)(C)n1nc(-c2cccc3ccccc23)c2c(N)ncnc21	1.1

molecular target: Serine/threonine-protein kinase PLK1 (Homo sapiens) (UniProt P53350)

Compound	ΔTm [°C]
COc1ccc2c(c[n+](C)c3c4cc5c(cc4ccc23)OCO5)c1OC [CHELERYTHRINE CHLORIDE]	0
N#CC(C#N)=Cc1ccc(O)c(O)c1 [TYRPHOSTIN 23]	0.4
CC(C)(C)n1nc(-c2cccc3ccccc23)c2c(N)ncnc21	0

molecular target: TRAF2 and NCK-interacting protein kinase (Homo sapiens) (UniProt Q9UKE5)

Compound	ΔTm [°C]
COc1ccc2c(c[n+](C)c3c4cc5c(cc4ccc23)OCO5)c1OC [CHELERYTHRINE CHLORIDE]	-1.3
N#CC(C#N)=Cc1ccc(O)c(O)c1 [TYRPHOSTIN 23]	0.2
CC(C)(C)n1nc(-c2cccc3ccccc23)c2c(N)ncnc21	4.5

molecular target: T3, Serine/threonine-protein kinase VRK1 (Homo sapiens) (UniProt Q99986)
T3 sequence (whole entry): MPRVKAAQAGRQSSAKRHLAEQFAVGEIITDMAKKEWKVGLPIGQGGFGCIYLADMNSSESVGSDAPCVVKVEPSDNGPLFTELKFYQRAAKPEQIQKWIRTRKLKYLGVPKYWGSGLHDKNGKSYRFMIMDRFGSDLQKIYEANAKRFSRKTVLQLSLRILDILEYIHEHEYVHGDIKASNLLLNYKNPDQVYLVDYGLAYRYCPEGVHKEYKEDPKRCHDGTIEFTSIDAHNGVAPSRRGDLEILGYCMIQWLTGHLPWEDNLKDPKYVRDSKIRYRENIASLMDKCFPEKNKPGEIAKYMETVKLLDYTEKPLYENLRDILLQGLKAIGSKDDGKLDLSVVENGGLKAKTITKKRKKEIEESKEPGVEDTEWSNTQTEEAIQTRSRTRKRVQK

Compound	ΔTm [°C]
COc1ccc2c(c[n+](C)c3c4cc5c(cc4ccc23)OCO5)c1OC [CHELERYTHRINE CHLORIDE]	-0.1
N#CC(C#N)=Cc1ccc(O)c(O)c1 [TYRPHOSTIN 23]	0.1
CC(C)(C)n1nc(-c2cccc3ccccc23)c2c(N)ncnc21	0.7
